The text below walks through data of ChEMBL document CHEMBL5154839, “Discovery of a selective and covalent small-molecule inhibitor of BFL-1 protein that induces robust apoptosis in cancer cells” (Eur J Med Chem, 2022).

Assay [1] deals with T1, Bcl-2-related protein A1 (Homo sapiens, UniProt Q16548).
T1 sequence (Q16548 whole entry): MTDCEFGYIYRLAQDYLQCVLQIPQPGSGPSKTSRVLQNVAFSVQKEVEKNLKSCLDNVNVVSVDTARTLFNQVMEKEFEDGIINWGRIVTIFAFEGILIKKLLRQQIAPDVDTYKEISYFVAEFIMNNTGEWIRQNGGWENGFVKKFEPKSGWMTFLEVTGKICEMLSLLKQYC
Description: Inhibition of His-tagged human BFL-1(1 to 151 residues) expressed in Escherichia coli BL21 (DE3) by fluorescence polarization-based binding assay

Assay [2] has as its target T1, Bcl-2-related protein A1. The experiment in a line: Displacement of fluorescein tagged BID BH3 peptide from His-tagged recombinant BFL-1 (1 to 151 residues) (unknown origin) expressed in Escherichia coli BL21 (DE3) assessed as inhibition constant incubated for 24 hrs by fluorescence polarization-based competitive binding assay. In general terms: In fluorescence polarisation assays a small probe gives low polarisation when free and higher when bound to something large.

In assay [3] the target is Induced myeloid leukemia cell differentiation protein Mcl-1 (Homo sapiens, UniProt Q07820). The assay can be described thus: Displacement of fluorescent-labeled BID-BH3 peptide from His-tagged human MCL-1 expressed in Escherichia coli BL21 (DE3) assessed as inhibition constant by fluorescence polarization-based competitive binding assay.
For assay [4], the target named is Apoptosis regulator Bcl-2 (Homo sapiens, UniProt P10415). The assay can be described thus: Displacement of fluorescent-labeled BID-BH3 peptide from human BCL-2 expressed in Escherichia coli BL21 (DE3) assessed as inhibition constant by fluorescence polarization-based competitive binding assay.
For assay [5], the target named is T1, Bcl-2-related protein A1. The experiment in a line: Displacement of fluorescent-labeled BID-BH3 peptide from His-tagged human BFL-1 (1 to 151 residues) expressed in Escherichia coli BL21 (DE3) assessed as inhibition constant by fluorescence polarization-based competitive binding assay.
Another assay addresses Bcl-2-like protein 2 (Homo sapiens, UniProt Q92843). The assay can be described thus: Displacement of fluorescent-labeled BID-BH3 peptide from human BCL-W expressed in Escherichia coli BL21 (DE3) assessed as inhibition constant by fluorescence polarization-based competitive binding assay.
A further assay has as its target Bcl-2-like protein 1 (Homo sapiens, UniProt Q07817). The experiment in a line: Displacement of fluorescent-labeled BID-BH3 peptide from human BCL-xL expressed in Escherichia coli BL21 (DE3) assessed as inhibition constant by fluorescence polarization-based competitive binding assay.
A further assay has as its system Kasumi 1. The experiment in a line: Growth inhibition of human Kasumi 1 cells incubated for 4 days by WST assay. Type of assay: functional, cell-based. As to conditions: Kasumi 1, 96 h.
Assay [6] in a line: Displacement of fluorescein tagged BID BH3 peptide from His-tagged recombinant BFL-1 (1 to 151 residues) C55A mutant (unknown origin) expressed in Escherichia coli BL21 (DE3) assessed as inhibition constant incubated for 24 hrs by fluorescence polarization-based competitive binding assay. Set-up: species or system Homo sapiens.
The next assay deals with HL-60. The assay can be described thus: Growth inhibition of human HL-60 cells incubated for 4 days by WST assay. As to conditions: HL-60, 96 h. Format: functional, cell-based.
The next assay concerns RPMI-8226. The assay can be described thus: Growth inhibition of human RPMI-8226 cells incubated for 4 days by WST assay. As to conditions: RPMI-8226, 96 h. Format: functional, cell-based.
The test system of another assay is K562. The experiment in a line: Growth inhibition of human K562 cells incubated for 4 days by WST assay. Type of assay: functional, cell-based. As to conditions: K562, 96 h.
The test system of another assay is MV4-11. The experiment in a line: Growth inhibition of human MV4-11 cells incubated for 4 days by WST assay. Type of assay: functional, cell-based. As to conditions: MV4-11, 96 h.
The test system of a further assay is MM1.S. The assay can be described thus: Growth inhibition of human MM1.S cells incubated for 4 days by WST assay. Type of assay: functional, cell-based. As to conditions: 96 h.
The test system of assay [7] is U-937. The experiment in a line: Growth inhibition of human U-937 cells incubated for 4 days by WST assay. Type of assay: functional, cell-based. As to conditions: U-937, 96 h.
For the next assay, the system named is Raji. The experiment in a line: Growth inhibition of human Raji cells incubated for 4 days by WST assay. Type of assay: functional, cell-based. As to conditions: 96 h.
Assay [8] has as its system U-937. The assay can be described thus: Induction of apoptosis in human U-937 cells assessed as necrotic cells at 60 uM measured after 4 hrs by Annexin PI staining based flow cytometry method (reference value: 0.00 %). Format: functional. Background: In flow cytometry, cells or beads pass a laser one at a time.
Assay [9] deals with U-937. The experiment in a line: Induction of apoptosis in human U-937 cells assessed as late apoptotic cells at 10 uM measured after 4 hrs by Annexin PI staining based flow cytometry method (reference value: 1.62 %). Type of assay: functional.
Assay [10] relates to U-937. The assay can be described thus: Induction of apoptosis in human U-937 cells assessed as late apoptotic cells at 60 uM measured after 4 hrs by Annexin PI staining based flow cytometry method (reference value: 1.62 %). Format: functional.
The subject of assay [11] is U-937. The experiment in a line: Induction of apoptosis in human U-937 cells assessed as late apoptotic cells at 40 uM measured after 4 hrs by Annexin PI staining based flow cytometry method (reference value: 1.62 %). Format: functional.
The test system of assay [12] is U-937. The assay can be described thus: Induction of apoptosis in human U-937 cells assessed as necrotic cells at 40 uM measured after 4 hrs by Annexin PI staining based flow cytometry method (reference value: 0.00 %). Format: functional.
For assay [13], the system named is U-937. The experiment in a line: Induction of apoptosis in human U-937 cells assessed as late apoptotic cells at 20 uM measured after 4 hrs by Annexin PI staining based flow cytometry method (reference value: 1.62 %). Format: functional.
The test system of assay [14] is U-937. The experiment in a line: Induction of apoptosis in human U-937 cells assessed as necrotic cells at 10 uM measured after 4 hrs by Annexin PI staining based flow cytometry method (reference value: 0.00 %). Type of assay: functional.
Assay [15] deals with U-937. The assay can be described thus: Induction of apoptosis in human U-937 cells assessed as early apoptotic cells at 60 uM measured after 4 hrs by Annexin PI staining based flow cytometry method (reference value: 1.95 %). Type of assay: functional.
Assay [16] has as its system U-937. The experiment in a line: Induction of apoptosis in human U-937 cells assessed as early apoptotic cells at 10 uM measured after 4 hrs by Annexin PI staining based flow cytometry method (reference value: 1.95 %). Type of assay: functional.
In assay [17] the test system is U-937. The experiment in a line: Induction of apoptosis in human U-937 cells assessed as early apoptotic cells at 40 uM measured after 4 hrs by Annexin PI staining based flow cytometry method (reference value: 1.95 %). Type of assay: functional.
In assay [18] the test system is U-937. The assay can be described thus: Induction of apoptosis in human U-937 cells assessed as necrotic cells at 20 uM measured after 4 hrs by Annexin PI staining based flow cytometry method (reference value: 0.00 %). Type of assay: functional.
For assay [19], the system named is U-937. The assay can be described thus: Induction of apoptosis in human U-937 cells assessed as early apoptotic cells at 20 uM measured after 4 hrs by Annexin PI staining based flow cytometry method (reference value: 1.95 %). Type of assay: functional.

What is called IC50 is the concentration at which inhibition is half-maximal. Read a low IC50 as higher potency. The term Ki denotes a measure of affinity in units of concentration, obtained from inhibition or displacement.

Chain of Apoptosis regulator Bcl-2 (P10415 whole entry, the tested form may be a part): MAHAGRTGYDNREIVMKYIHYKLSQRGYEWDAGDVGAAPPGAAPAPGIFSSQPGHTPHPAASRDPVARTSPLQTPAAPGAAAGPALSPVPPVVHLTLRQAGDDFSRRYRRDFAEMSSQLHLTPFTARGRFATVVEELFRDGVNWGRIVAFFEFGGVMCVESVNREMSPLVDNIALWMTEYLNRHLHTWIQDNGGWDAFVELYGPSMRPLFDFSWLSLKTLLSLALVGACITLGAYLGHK
Chain of Induced myeloid leukemia cell differentiation protein Mcl-1 (Q07820 whole entry): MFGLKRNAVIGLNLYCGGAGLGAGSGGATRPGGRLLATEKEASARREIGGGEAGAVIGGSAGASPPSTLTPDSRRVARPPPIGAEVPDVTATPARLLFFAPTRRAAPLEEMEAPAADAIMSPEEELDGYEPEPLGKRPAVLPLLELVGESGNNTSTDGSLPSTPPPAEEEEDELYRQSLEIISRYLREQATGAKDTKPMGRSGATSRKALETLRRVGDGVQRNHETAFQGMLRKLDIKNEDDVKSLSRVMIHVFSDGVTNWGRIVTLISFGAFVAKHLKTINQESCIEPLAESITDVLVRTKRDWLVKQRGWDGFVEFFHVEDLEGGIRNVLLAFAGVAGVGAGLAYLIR
Chain of Bcl-2-like protein 2 (Q92843 whole entry): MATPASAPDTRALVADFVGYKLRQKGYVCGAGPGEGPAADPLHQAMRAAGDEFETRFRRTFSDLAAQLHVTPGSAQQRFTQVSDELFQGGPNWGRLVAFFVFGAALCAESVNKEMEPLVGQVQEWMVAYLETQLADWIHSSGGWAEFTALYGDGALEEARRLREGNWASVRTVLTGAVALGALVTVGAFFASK
Chain of Bcl-2-like protein 1 (Q07817 whole entry): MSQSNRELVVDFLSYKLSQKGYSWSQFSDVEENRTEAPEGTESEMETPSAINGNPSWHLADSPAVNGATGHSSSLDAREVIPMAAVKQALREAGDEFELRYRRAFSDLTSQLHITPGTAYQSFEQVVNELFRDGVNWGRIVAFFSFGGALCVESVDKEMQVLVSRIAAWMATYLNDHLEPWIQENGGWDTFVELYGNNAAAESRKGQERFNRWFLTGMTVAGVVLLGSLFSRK

On to `CC(=O)NC(Cc1c[nH]c2ccccc12)C(=O)NCCSSCCN(C)C` (stereo not given), for which the half-inhibitory concentration (IC50) against Bcl-2-related protein A1 [1] was 1300 nM.

Regarding `C=CC(=O)N1CCN(c2c3ccc(-c4cccc(F)c4)cc3nn2CCCO)CC1`, at Bcl-2-related protein A1 [2], the Ki was found to be 2.41 µM.

As for `C=CC(=O)N1CCN(c2c3ccc(-c4cccc(F)c4)cc3nn2Cc2cccc(C(=O)O)c2)CC1`, on Bcl-2-related protein A1 [2], the inhibitory constant (Ki) is greater than 100 µM.

Turning to `C=CC(=O)N1CCN(c2c3ccc(-c4cccc(F)c4)cc3nn2Cc2cccc(Cl)c2)CC1`, the Ki on Bcl-2-related protein A1 [2] was greater than 100 µM.

In the case of `C=CC(=O)N1CCN(c2c3ccc(-c4cccc(F)c4)cc3nn2Cc2ccc(C(=O)O)cc2)CC1`, at Bcl-2-related protein A1 [2], the Ki is greater than 100 µM.

In the case of `CC1(C)CCC(CN2CCN(c3ccc(C(=O)NS(=O)(=O)c4ccc(NCC5CCOCC5)c([N+](=O)[O-])c4)c(Oc4cnc5[nH]ccc5c4)c3)CC2)=C(c2ccc(Cl)cc2)C1` [VENETOCLAX], in assay [3], the Ki is greater than 444 nM.

As to `C=CC(=O)N1CCN(c2c3ccc(-c4cccc(F)c4)cc3nn2CCC(C)(C)C)CC1`, the Ki on Bcl-2-related protein A1 [2] was greater than 100 µM.

As to `CN1CCN(C2=C(Cl)C(=O)N(c3ccc(Cl)c(Cl)c3)C2=O)CC1`, the Ki is 12.5 µM in assay [4], 400 nM at Bcl-2-related protein A1 [5], 12.5 µM at Bcl-2-like protein 2 and 50 µM at Bcl-2-like protein 1.

Turning to `C=CC(=O)N1CCN(c2c3ccc(-c4cccc(F)c4)cc3nn2CCCN(C)C)CC1`, the Ki on Bcl-2-related protein A1 [2] stood at 18.1 µM.

Consider `C=CC(=O)N1CCN(c2c3ccc(-c4cccc(F)c4)cc3nn2Cc2ccc(Cl)cc2)CC1`, for which the Ki at Bcl-2-related protein A1 [2] is greater than 100 µM.

Take `C=CC(=O)N1CCN(c2c3ccc(-c4cccc(F)c4)cc3nn2Cc2ccc(C#N)cc2)CC1`: on Bcl-2-related protein A1 [2], the Ki is 3.23 µM.

Turning to `CSc1ccc(C(Nc2ccccn2)c2c(C)[nH]c3ccccc23)cc1` (stereo not given), the Ki in assay [4] turned out to be 12.9 µM; on Bcl-2-related protein A1 [5], 2900 nM.

On to `C=CC(=O)N1CCN(c2c3ccc(-c4cccc(F)c4)cc3nn2CCCOC)CC1`, for which the Ki at Bcl-2-related protein A1 [2] is greater than 100 µM.

For `COc1cccc(Cn2nc3cc(-c4cccc(F)c4)ccc3c2N2CCNCC2)c1`, the Ki at Bcl-2-related protein A1 [2] was 3.01 µM.

`CC(C)(C)c1ccc(CN2CCN(S(=O)(=O)Nc3ccc(SCCc4ccccc4)cc3C(=O)O)CC2)cc1`: the IC50 in the assay on Kasumi 1 was 20.3 µM; in the assay with HL-60 it was 32.8 µM; with RPMI-8226, 21.3 µM; in the assay with K562 it was 18.9 µM; in the assay with MV4-11, 20.8 µM; in the assay with MM1.S it was 32.6 µM. The IC50 in the assay on U-937 [7] stood at 19.9 µM; in the assay on Raji it was 51.5 µM. In addition, the Ki in assay [6] was determined as 2280 nM.

Regarding `C=CC(=O)N1CCN(c2c3ccc(-c4cccc(F)c4)cc3nn2Cc2ccc(O)cc2)CC1`, the Ki on Bcl-2-related protein A1 [2] amounted to 10.2 µM.

As for `C=CC(=O)N1CCN(c2c3ccc(-c4cccc(F)c4)cc3nn2CC)CC1`, at Bcl-2-related protein A1 [2], the inhibition constant Ki was 2.85 µM.

Consider `C=CC(=O)N1CCN(c2c3ccc(-c4cccc(F)c4)cc3nn2Cc2cccc(O)c2)CC1`, for which the inhibition constant (Ki) at Bcl-2-related protein A1 [2] was found to be 18.4 µM.

With `C=CC(=O)N1CCN(c2c3ccc(-c4cccc(F)c4)cc3nn2Cc2ccc(OC)cc2)CC1`, the Ki on Bcl-2-related protein A1 [2] was greater than 100 µM.

Take `CCC(=O)N1CCN(c2c3ccc(-c4cccc(F)c4)cc3nn2Cc2ccccc2)CC1`: the Activity in the assay with U-937 [8] was 0.03%; in the assay on U-937 [9] it was 2.02%; in the assay with U-937 [10], 2.06%; in the assay with U-937 [11], 1.57%; in the assay with U-937 [12], 0.03%; in the assay on U-937 [13], 1.8%. Also, the Activity with U-937 [14] amounted to 0.16%; in the assay on U-937 [15] it was 3.65%; in the assay on U-937 [16], 1.96%; with U-937 [17], 3.14%; in the assay on U-937 [18], 0.05%; in the assay on U-937 [19], 2.79%. The IC50 with Kasumi 1 stood at 7.1 µM; in the assay on HL-60, 28.9 µM; in the assay with RPMI-8226 it was 11.8 µM; in the assay on K562, 10.4 µM; in the assay on MV4-11, 8.9 µM; with MM1.S, 16.8 µM. Moreover, the IC50 was determined as 9.3 µM with U-937 [7] and 48.2 µM with Raji. For the same compound, the Ki in assay [6] is greater than 200000 nM; on Bcl-2-related protein A1 [2] it was 24.1 µM.

`C=CC(=O)N1CCN(c2c3ccc(-c4cccc(F)c4)cc3nn2CCC)CC1`: at Bcl-2-related protein A1 [2], the Ki is 1.13 µM.

Consider `C=CC(=O)N1CCN(c2c3ccc(-c4cccc(F)c4)cc3nn2Cc2cccc(C#N)c2)CC1`, for which the Ki at Bcl-2-related protein A1 [2] turned out to be 3.34 µM.
